Experiment [1] relates to Leishmania donovani axenic amastigote parasites. In words: Leishmania donovani axenic amastigote proliferation assay. Type of experiment: cell-based. The settings on record: axenic amastigotes in vitro, read-out: L. donovani amastigotes EC50. The procedure, abridged: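 EC50 values come from CellTiter-Glo luminescence after 2-day compound exposure of axenic amastigotes (9600 per well) at 37 °C, 5% CO2. Medium: RPMI 1640, 20% heat-inactivated FBS, folic acid, adenosine, D-glucose, 25 mM MES, adjusted to pH 5.5.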

Experiment [2] has as its system L. donovani HU3 strain in mouse peritoneal macrophages. Kind of experiment: Assay for proliferation of Leishmania parasites in mouse peritoneal macrophages. Type of experiment: cell-based, Leishmania donovani. Conditions: Leishmania donovani, Peritoneal macrophage, read-out: L. donavani Macrophage EC50. The procedure, abridged: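 EC50 derives from counting SYBR Green-stained parasite nuclei by high-content imaging after 5 days' compound exposure. Host cells were uninfected BALB/c peritoneal macrophages, infected for 24 h before dosing with spleen-derived L. donovani HU3 parasites from mice infected 9–11 weeks.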

In experiment [3] the test system is Trypanosoma brucei Lister 427 strain bloodstream form. Kind of experiment: Assay for proliferation of kinetoplastid parasite Trypanosoma brucei. Type of experiment: cell-based. Conditions: Lister 427 bloodstream form, 48 hours, read-out: T. brucei EC50. The procedure, abridged: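 Bloodstream-form T. brucei Lister 427 in HMI-9 medium was exposed to compound (DMSO vehicle) for 48 hours at 37° C, 5% CO2. Parasite growth was read as ATP by CellTiter-Glo luminescence, with EC50 calculated from percent inhibition.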

Experiment [4] relates to Trypanosoma cruzi amastigotes (Tulahuen strain) cultured in 3T3 fibroblast cells. Kind of experiment: Assay for proliferation of kinetoplastid parasite Trypanosoma cruzi. The experiment is classed as cell-based. Conditions: 144 h, 6 day incubation. An excerpt:
Assay for Proliferation of Kinetoplastid Parasite Trypanosoma cruzi.
Compounds of the invention can be assayed to measure their capacity to inhibit proliferation of kinetoplastid parasite Trypanosoma cruzi. The screening procedure is for identifying compounds with inhibitor activity against Trypanosoma cruzi amastigotes cultured in 3T3 fibroblast cells. The assay is done using the mammalian stage (amastigotes) of T. cruzi that replicates in the intracellular space of host cells. The host cells are initially infected with the culture-derived trypomastigotes that rapidly invade and then divide as amastigotes. The protocol uses the Tulahuen strain of T. cruzi that has been engineered to express the E. coli beta-galactosidase gene (Lac-Z) (Antimicr. Agents Chemoth. 40:2592, 1996). This allows for a colorimetric readout by using the substrate CPRG and an absorbance plate reader.
3T3 fibroblast cells are re-suspended in RPMI-1640 medium without phenol red medium supplemented with 10% FBS (heat inactivated), 100 μg/ml penicillin, and 100 μg/ml streptomycin. Forty μL of suspension (1,000 cells) is dispensed into 384-well plates and incubated overnight at 37° C. temperature and in atmosphere containing 5% CO2. The following day, 100 nL of compounds of the invention in DMSO are added to plate wells containing 3T3 cells. At the same time control compounds (benznidazole and nifurtimox) and DMSO are added to plates to serve as the positive and negative controls, respectively. After that, 10 μL of media containing 10,000 T. cruzi trypomastigotes are added to each plate well and plates are placed back into incubators. After 6 day incubation, 10 μL of reagent solution (0.6 mM CPRG, 0.6% NP-40 in PBS) is added to plates and incubated at room temperature for 2 hours. Absorbance is then measured on SpectraMax Gemini […] to determine relative number of T. cruzi cells present in each plate well. The percentage inhibition of 50%, EC50, is calculated for each compound. […] Typically, the EC50 is 10 μM or less.

Where [5] appears, read: Tulahuen amastigotes in 3T3 fibroblast cells, read-out: T cruzi EC50.

SMILES strings stand for the structures. Like-named read-outs stand apart in the source and are kept apart here. A value given as a limit tells only on which side of the number the result lay.

By EC50 is commonly meant the midpoint of the concentration-response curve. For `Cc1cnc2nc(-c3cc(NC(=O)C4CCCCO4)ccc3Cl)[nH]c2c1` (centres unmarked) [Compound 131], the 50% effective concentration (EC50) in experiment [1] was 22.1 µM; in experiment [2], more than 50 µM; in experiment [3] it was 5.1 µM; in experiment [4] (setting [5]), 6.8 µM.
For `COc1cccc(C(=O)Nc2ccc(Cl)c(-c3nc4ncc(C)cc4[nH]3)c2)c1` [Compound 134] the same measures were 21.4 µM, 13.9 µM, 0.89 µM and 2.59 µM.
`Cc1cnc2nc(-c3cc(NC(=O)c4cnc(Cl)cn4)ccc3Cl)[nH]c2c1` [Compound 135]: the 50% effective concentration (EC50) is more than 25 µM in experiment [1], more than 25.9 µM in experiment [2], more than 1.51 µM in experiment [3] and more than 20 µM in experiment [4] (setting [5]).
On to `Cc1cnc2nc(-c3cc(NC(=O)C4CCCO4)ccc3Cl)[nH]c2c1` (centres unmarked) [Compound 138], for which the half-maximal effective concentration (EC50) in experiment [1] was more than 25 µM; in experiment [2] it was more than 50 µM; in experiment [3], more than 25 µM; in experiment [4] (setting [5]) it was more than 20 µM.
In the case of `COc1ccc(C(=O)Nc2ccc(Cl)c(-c3nc4ncc(C)cc4[nH]3)c2)c(OC)c1` [Compound 147], the EC50 in experiment [1] is more than 25 µM; in experiment [2], 8.8 µM; in experiment [3] it was 3.6 µM; in experiment [4] (setting [5]) it was 2.41 µM.
On to `Cc1cnc2nc(-c3cc(NC(=O)Cc4ccncc4)ccc3Cl)[nH]c2c1` [Compound 148], for which the concentration for a half-maximal effect (EC50) is more than 25 µM in experiment [1], more than 50 µM in experiment [2], more than 24.6 µM in experiment [3] and more than 20 µM in experiment [4] (setting [5]).
As to `Cc1cnc2nc(-c3cc(NC(=O)c4ccccc4Cl)ccc3Cl)[nH]c2c1` [Compound 149], the EC50 was more than 25 µM in experiment [1], 9.2 µM in experiment [2], 10.9 µM in experiment [3] and 0.55 µM in experiment [4] (setting [5]).
For the molecule `Cc1cnc2nc(-c3cc(NC(=O)c4ccccc4N(C)C)ccc3Cl)[nH]c2c1` [Compound 150], the EC50 in experiment [1] is more than 25 µM; in experiment [2], 22.8 µM; in experiment [3], 12.1 µM; in experiment [4] (setting [5]), 8.9 µM.
In the case of `Cc1cnc2nc(-c3cc(NC(=O)c4cccn4C)ccc3Cl)[nH]c2c1` [Compound 151], the EC50 in experiment [1] was determined as 17.1 µM; in experiment [2], 19.5 µM; in experiment [3] it was 1.83 µM; in experiment [4] (setting [5]), 3.7 µM.
For the molecule `Cc1cnc2nc(-c3cc(NC(=O)c4ccc(Cl)s4)ccc3Cl)[nH]c2c1` [Compound 152], the EC50 in experiment [1] is more than 25 µM; in experiment [2], 4.5 µM; in experiment [3], 5.6 µM; in experiment [4] (setting [5]) it was more than 11.5 µM.
On to `Cc1cnc2nc(-c3cc(NC(=O)C4CCCCN4)ccc3Cl)[nH]c2c1` (centres unmarked) [Compound 171], for which the EC50 was more than 25 µM in experiment [1], more than 50 µM in experiment [2], more than 7.5 µM in experiment [3] and 7.5 µM in experiment [4] (setting [5]).
Turning to `Cc1cnc2nc(-c3cc(NC(=O)c4nccnc4O)ccc3Cl)[nH]c2c1` [Compound 174], the EC50 in experiment [1] was more than 25 µM; in experiment [2] it was more than 50 µM; in experiment [3], more than 25 µM; in experiment [4] (setting [5]), more than 20 µM.
As to `Cc1cnc2nc(-c3cc(NC(=O)c4ccc(S(C)(=O)=O)s4)ccc3Cl)[nH]c2c1` [Compound 175, N-(4-chloro-3-{6-methyl-1H-imidazo [4,5-b]pyridin-2-yl}phenyl)-5-methanesulfonylthiophene-2-carboxamide], the concentration for a half-maximal effect (EC50) in experiment [1] is more than 25 µM; in experiment [2] it was more than 28.9 µM; in experiment [3] it was more than 20.5 µM; in experiment [4] (setting [5]) it was 0.067 µM; in experiment [4] (TULAHUEN, T. cruzi in 3T3 fibroblast cells, CPRG absorbance, read-out: EC50), 0.067 µM.
Consider `Cc1cnc2nc(-c3cc(NC(=O)c4ccc(F)s4)ccc3Cl)[nH]c2c1` [Compound 185], for which the 50% effective concentration (EC50) in experiment [1] is 11.2 µM; in experiment [2] it was more than 30.7 µM; in experiment [3], 1.77 µM; in experiment [4] (setting [5]) it was 0.96 µM.
For `Cc1cnc2nc(-c3cc(NC(=O)c4cccnn4)ccc3Cl)[nH]c2c1` [Compound 186] the same measures were more than 25 µM, more than 34.7 µM, 4.5 µM and more than 11.5 µM.
As for `Cc1cnc2nc(-c3cc(NC(=O)c4cncnc4)ccc3Cl)[nH]c2c1` [Compound 187], the half-maximal effective concentration (EC50) in experiment [1] is 6.9 µM; in experiment [2], more than 42.2 µM; in experiment [3] it was 4.2 µM; in experiment [4] (setting [5]) it was more than 11.5 µM.
For `Cc1cnc2nc(-c3cc(NC(=O)c4cccc(N5CCOCC5)c4)ccc3Cl)[nH]c2c1` [Compound 195], the concentration giving a half-maximal response (EC50) in experiment [1] was 21.2 µM; in experiment [2], more than 50 µM; in experiment [3] it was 7.8 µM; in experiment [4] (setting [5]) it was 8.8 µM.
For the molecule `Cc1cnc2nc(-c3cc(NC(=O)CCC(=O)O)ccc3Cl)[nH]c2c1` [Compound 201], the EC50 is more than 25 µM in experiment [1], more than 50 µM in experiment [2], more than 10.8 µM in experiment [3] and more than 20 µM in experiment [4] (setting [5]).
With `Cc1cnc2nc(-c3cc(NC(=O)OC(C)C)ccc3Cl)[nH]c2c1` [Compound 216], the concentration giving a half-maximal response (EC50) was found to be 2.59 µM in experiment [1], 2.83 µM in experiment [2], 0.46 µM in experiment [3] and 0.7 µM in experiment [4] (setting [5]).
For the molecule `Cc1cnc2nc(-c3cc(NC(=O)OC4CCCC4)ccc3Cl)[nH]c2c1` [Compound 218], the concentration for a half-maximal effect (EC50) in experiment [1] was more than 25 µM; in experiment [2] it was 7.5 µM; in experiment [3], 14.9 µM; in experiment [4] (setting [5]), 2.14 µM.
As for `Cc1cnc2nc(-c3cc(NC(=O)OC4CCCCC4)ccc3Cl)[nH]c2c1` [Compound 222], the EC50 in experiment [1] is more than 25 µM; in experiment [2], more than 22.6 µM; in experiment [3] it was more than 25 µM; in experiment [4] (setting [5]) it was 6.4 µM.
Turning to `CCN(CC)CCCCCCNC(=O)Nc1ccc(Cl)c(-c2nc3ncc(C)cc3[nH]2)c1` [Compound 227], the half-maximal effective concentration (EC50) in experiment [1] is more than 25 µM; in experiment [2], more than 50 µM; in experiment [3] it was more than 15.2 µM; in experiment [4] (setting [5]), more than 20 µM.
In the case of `Cc1cnc2nc(-c3cc(NC(=O)NCCCCCCN(C)C)ccc3Cl)[nH]c2c1` [Compound 228], the EC50 in experiment [1] was more than 25 µM; in experiment [2], more than 50 µM; in experiment [3], more than 25 µM; in experiment [4] (setting [5]) it was more than 20 µM.
For the molecule `Cc1cnc2nc(-c3cc(NC(=O)N4CC(F)(F)C[C@@H]4c4cccc(F)c4)ccc3Cl)[nH]c2c1` [Compound 229], the half-maximal effective concentration (EC50) in experiment [1] is more than 25 µM; in experiment [2] it was more than 50 µM; in experiment [3] it was more than 23.3 µM; in experiment [4] (setting [5]), more than 20 µM.
On to `Cc1cnc2nc(-c3cc(NC(=O)N4CC5CC5C4)ccc3Cl)[nH]c2c1` (centres unmarked) [Compound 230], for which the EC50 in experiment [1] was 5.4 µM; in experiment [2], 13.3 µM; in experiment [3] it was 1.48 µM; in experiment [4] (setting [5]), 3.6 µM.
For `Cc1cnc2nc(-c3cc(NC(=O)N(C)C4CCCC4)ccc3Cl)[nH]c2c1` [Compound 231], the EC50 in experiment [1] was more than 25 µM; in experiment [2], 27.9 µM; in experiment [3], more than 23.2 µM; in experiment [4] (setting [5]) it was more than 20 µM.
As to `Cc1cnc2nc(-c3cc(NC(=O)N(C)C4CCOC4)ccc3Cl)[nH]c2c1` (centres unmarked) [Compound 232], the concentration for a half-maximal effect (EC50) is more than 25 µM in experiment [1], more than 50 µM in experiment [2], more than 25 µM in experiment [3] and more than 20 µM in experiment [4] (setting [5]).
Turning to `Cc1cnc2nc(-c3cc(NC(=O)N4CCC(N(C)C)C4)ccc3Cl)[nH]c2c1` (centres unmarked) [Compound 233], the EC50 in experiment [1] is more than 25 µM; in experiment [2], more than 50 µM; in experiment [3] it was more than 25 µM; in experiment [4] (setting [5]), more than 20 µM.
Regarding `Cc1cnc2nc(-c3cc(NC(=O)NCCN(C(C)C)C(C)C)ccc3Cl)[nH]c2c1` [Compound 236], the EC50 in experiment [1] was more than 25 µM; in experiment [2], 28.8 µM; in experiment [3] it was 1.11 µM; in experiment [4] (setting [5]), 17.9 µM.
For `CNC(=O)Nc1ccc(Cl)c(-c2nc3ncc(C)cc3[nH]2)c1` [Compound 238], the 50% effective concentration (EC50) in experiment [1] was more than 25 µM; in experiment [2], 29.3 µM; in experiment [3], 9.2 µM; in experiment [4] (setting [5]), more than 20 µM.
Take `CON(C)C(=O)Nc1ccc(Cl)c(-c2nc3ncc(C)cc3[nH]2)c1` [Compound 240]: the 50% effective concentration (EC50) in experiment [1] came out at 2.06 µM; in experiment [2], 6.1 µM; in experiment [3] it was 0.45 µM; in experiment [4] (setting [5]) it was 0.7 µM.
